Laboratory results published in US6162925A, “Antibiotic for methicillin resistant bacteria” (Research Corporation Tech., Inc., priority 1999, dated 2000).
In brackets after ≈: the same amount, converted by molar mass.

Columns and labels:
[1] = basic aqueous solutions; hydrolytic opening of six-membered ring; cited from earlier work
[2] = cited from earlier work
[3] = tested on: Gram-positive and Gram-negative bacteria; details: S- versus R-configuration in the heterocyclic portion; cited from earlier work
[4] = tested on: Staphylococcus aureus ATCC 29213; experiment: MIC, broth microdilution (NCCLS), S. aureus ATCC 29213; format: cell-based; details: ATCC29213, 20 h, read-out: Minimal Inhibitory Concentration (MIC)
Description: (§1) Test compounds were assayed against Staphylococcus aureus FDA 209P by the 10 fold agar disc diffusion assay on BHI-plates at pH=7 and pH=9 in accordance with the procedure from the National Committee for Clinical Laboratory Standards 1989. Susceptibility testing. A panel of 16 bacteria was used to evaluate the antimicrobial activity of the compounds (Table 2). The MIC of each antimicrobial agent was determined using a microdilution method according to NCCLS standards^1. Serial twofold dilutions of antibiotics were prepared in Mueller-Hinton broth (Difco Laboratories, Detroit, Mich.). Bacteria were grown to early log phase at 35° C. (1 hours) in Mueller-Hinton broth and cultures were diluted to achieve a final inoculum of 5×10^5 CFU per ml. Microtiter plates were incubated at 35° C. for 20 h and then were read using a Thermomax microplate reader (Molecular Devices, Sunnyvale, Calif.) and a microtiter plate reading mirror. The MIC was defined as the lowest concentration of antibiotic which inhibited the development of visible growth at the end of the incubation period. The standard reference strains were Staphyloccocus aureus ATCC […], Enterococcus faecalis ATCC 29212, E. faecium ATCC 35667, Escherichia coli ATCC 25922, and Pseudomonas aeruginosa ATCC 27853. Imipenem and vancomycin were used as antibiotic controls and values for reference strains were in accordance with the NCCLS.
Staphylococcus ATCC Reference strain

[5] = tested on: Staphylococcus aureus COL8A; experiment: MIC, broth microdilution (NCCLS), S. aureus COL8A; format: cell-based; details: 20 h, read-out: Minimal Inhibitory Concentration (MIC)
Description: as §1
(§2) Staphylococcus Methicillin
aureus COL8A susceptible, […]

[6] = tested on: Staphylococcus aureus PC1; experiment: MIC, broth microdilution (NCCLS), S. aureus PC1; format: cell-based; details: PC1, 20 h, read-out: Minimal Inhibitory Concentration (MIC)
Description: as §1
Staphylococcus Type A βlactamase
aureus PC1 hyperproducer

[7] = tested on: Staphylococcus aureus sa ATCC 13709; experiment: MIC, broth microdilution (NCCLS), S. aureus sa ATCC 13709; format: cell-based; details: ATCC13709, 20 h, read-out: Minimal Inhibitory Concentration (MIC)
Description: as §1

[8] = tested on: Staphylococcus aureus COL; experiment: MIC, broth microdilution (NCCLS), S. aureus COL; format: cell-based; details: 20 h, read-out: Minimal Inhibitory Concentration (MIC)
Description: as §1, §2
aureus COL resistant, β-

Staphylococcus aureus 76 = experiment: MIC, broth microdilution (NCCLS), S. aureus 76; format: cell-based; details: Staphylococcus aureus, 76, 20 h, read-out: Minimal Inhibitory Concentration (MIC)
Description: as §1, §2

[9] = tested on: Staphylococcus aureus ATCC 33593; experiment: MIC, broth microdilution (NCCLS), S. aureus ATCC 33593; format: cell-based; details: ATCC33593, 20 h, read-out: Minimal Inhibitory Concentration (MIC)
Description: as §1
Staphylococcus ATCC Methicillin
aureus ATCC 33593 resistant, β-

[10] = tested on: Staphylococcus aureus sa201; experiment: MIC, broth microdilution (NCCLS), S. aureus sa201; format: cell-based; details: SA201, 20 h, read-out: Minimal Inhibitory Concentration (MIC)
Description: as §1
Staphylococcus Clinical isolate,
aureus sa201 Spain resistant, β-

[11] = tested on: Staphylococcus haemolyticus UA281; experiment: MIC, broth microdilution (NCCLS), S. haemolyticus UA281; format: cell-based; details: UA281, 20 h, read-out: Minimal Inhibitory Concentration (MIC)
Description: as §1, §2
haemolyticus UA281 resistant

[12] = tested on: Enterococcus faecalis ATCC 29212; experiment: MIC, broth microdilution (NCCLS), E. faecalis ATCC 29212; format: cell-based; details: ATCC29212, 20 h, read-out: Minimal Inhibitory Concentration (MIC)
Description: as §1
(§3) Enterococcus ATCC Reference strain

[13] = tested on: Enterococcus faecium ATCC 35667; experiment: MIC, broth microdilution (NCCLS), E. faecium ATCC 35667; format: cell-based; details: ATCC35667, 20 h, read-out: Minimal Inhibitory Concentration (MIC)
Description: as §1, §3

[14] = tested on: Enterococcus faecium BM4147; experiment: MIC, broth microdilution (NCCLS), E. faecium BM4147; format: cell-based; details: BM4147, 20 h, read-out: Minimal Inhibitory Concentration (MIC)
Description: as §1
(§4) Enterococcus Vancomycin
faecium BM4147 resistant, vanA

[15] = tested on: Enterococcus faecalis V583; experiment: MIC, broth microdilution (NCCLS), E. faecalis V583; format: cell-based; details: V583, 20 h, read-out: Minimal Inhibitory Concentration (MIC)
Description: as §1, §4
faecalis V583 resistant, vanB

[16] = tested on: Enterococcus faecium efm040; experiment: MIC, broth microdilution (NCCLS), E. faecium efm040; format: cell-based; details: EFM040, 20 h, read-out: Minimal Inhibitory Concentration (MIC)
Description: as §1
Enterococcus Clinical isolate,
faecium efm040 U.S.A. resistant

[17] = tested on: Escherichia coli ATCC 25922; experiment: MIC, broth microdilution (NCCLS), E. coli ATCC 25922; format: cell-based; details: ATCC25922, 20 h, read-out: Minimal Inhibitory Concentration (MIC)
Description: as §1

[18] = tested on: Pseudomonas Aeruginosa ATCC 27853; experiment: MIC, broth microdilution (NCCLS), P. aeruginosa ATCC 27853; format: cell-based; details: ATCC27853, 20 h, read-out: Minimal Inhibitory Concentration (MIC)
Description: as §1

CN(C(=O)C[C@@H](N)CCCNC(=N)N)[C@@H]1CNC(NC(N)=O)=NC1=O [TAN-1057B]
loss of antibacterial activity in basic aqueous solutions [1]: gradually lost their antibacterial activities in basic aqueous solutions

CN1C(=O)C[C@H](CCCNC(=N)N)NC(=O)[C@H]1CNC(=N)NC(N)=O [TAN-1057C]
conversion upon standing in water [2]: rapidly convert to a mixture of TAN-1057A/B upon standing in water

CN1C(=O)C[C@H](CCCNC(=N)N)NC(=O)[C@@H]1CNC(=N)NC(N)=O [TAN-1057D]
relative antibacterial activity of stereoisomers [3]: more active than TAN-1057 B and C | conversion upon standing in water [2]: rapidly convert to a mixture of TAN-1057A/B upon standing in water

CN[C@H](CC(C)C)C(=O)N[C@H]1C(=O)N[C@@H](CC(N)=O)C(=O)N[C@H]2C(=O)N[C@H]3C(=O)N[C@H](C(=O)N[C@H](C(=O)O)c4cc(O)cc(O)c4-c4cc3ccc4O)[C@H](O)c3ccc(c(Cl)c3)Oc3cc2cc(c3O[C@@H]2O[C@H](CO)[C@@H](O)[C@H](O)[C@H]2O[C@H]2C[C@](C)(N)[C@H](O)[C@H](C)O2)Oc2ccc(cc2Cl)[C@H]1O [Vancomycin, vancomycin]
MIC [4]: ≤ 0.25 µg/mL | MIC [5]: ≤ 0.25 µg/mL | MIC [6]: ≤ 0.25 µg/mL | MIC [7]: ≤ 0.25 µg/mL | MIC [8]: 1 µg/mL (≈ 0.69 µM) | MIC (Staphylococcus aureus 76): ≤ 0.25 µg/mL | MIC [9]: 0.5 µg/mL (≈ 0.345 µM) | MIC [10]: 0.5 µg/mL (≈ 0.345 µM) | MIC [11]: 1 µg/mL (≈ 0.69 µM) | MIC [12]: 1 µg/mL (≈ 0.69 µM) | MIC [13]: ≤ 0.25 µg/mL | MIC [14]: > 128 µg/mL | MIC [15]: 16 µg/mL (≈ 11 µM) | MIC [16]: ≤ 0.25 µg/mL | MIC [17]: > 128 µg/mL | MIC [18]: > 128 µg/mL
